Like-named read-outs stand apart in the source and are kept apart here. Each block holds one molecule with its values, some of them ahead of it.
How the values were obtained:
Aurora-A kinase = target: T1, Aurora-A kinase (Homo sapiens, UniProt O14965); test: ChEF-based assay (PhosphoSens) of Aurora-A kinase activity
T1 sequence (O14965 1-403): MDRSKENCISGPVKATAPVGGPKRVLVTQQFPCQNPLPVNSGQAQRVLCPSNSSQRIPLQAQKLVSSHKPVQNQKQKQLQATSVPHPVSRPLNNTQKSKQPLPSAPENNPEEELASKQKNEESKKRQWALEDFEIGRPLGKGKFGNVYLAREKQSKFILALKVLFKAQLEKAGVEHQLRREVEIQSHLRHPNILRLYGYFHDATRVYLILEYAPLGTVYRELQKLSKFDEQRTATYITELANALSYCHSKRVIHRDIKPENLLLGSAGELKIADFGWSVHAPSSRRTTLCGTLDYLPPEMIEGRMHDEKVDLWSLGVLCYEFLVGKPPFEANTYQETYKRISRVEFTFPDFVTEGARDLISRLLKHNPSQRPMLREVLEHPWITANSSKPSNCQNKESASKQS
Protocol: The reaction wells were mixed, and the relative fluorescence unit (RFU) data were collected every 3 min for 30 min at 30 °C. The used λEx/Em of the chelated Mg^2+ with the Sox was 360/485 nm.

[1] = system: various cancerous cell lines; parameters: method as in PMID 16204078; settings: cited from earlier work
[2] = system: A375 melanoma human tumor xenograft; parameters: method as in PMID 16204078; settings: A375 melanoma human tumor xenograft model; cited from earlier work
DLBC lymphoma cell lines = system: DLBC lymphoma cell lines; parameters: method as in PMID 31850205; settings: cited from earlier work

Molecule: 4-((5-amino-1-((3,5-bis(trifluoromethyl)phenyl)sulfonyl)-1H-1,2,4-triazol-3-yl)amino)benzenesulfonamide [Compound 1d]
IC50 (Aurora-A kinase; Mean ± SEM of 3 independent experiments, 1.25 nM Aurora-A kinase, 15 µM ATP, 10 µM CSox-peptide substrate): 1.78 ± 0.34 µM

IC50 (Aurora-A kinase): 0.21 ± 0.02 µM
Molecule: Nc1nc(Nc2ccc(S(N)(=O)=O)cc2)nn1S(=O)(=O)c1c(F)cccc1F [Compound 1b, 4-((5-amino-1-((2,6-difluorophenyl)sulfonyl)-1H-1,2,4-triazol-3-yl)amino)benzenesulfonamide]

melting point: 229 to 231 °C | IC50 (Aurora-A kinase): 0.13 ± 0.06 µM
Molecule: Nc1nc(Nc2ccc(S(N)(=O)=O)cc2)nn1S(=O)(=O)c1ccccc1 [Compound 1a, 4-((5-amino-1-(phenylsulfonyl)-1H-1,2,4-triazol-3-yl)amino)benzenesulfonamide]

IC50 (Aurora-A kinase): 0.23 ± 0.02 µM
Molecule: Cc1ccc(S(=O)(=O)n2nc(Nc3ccc(S(N)(=O)=O)cc3)nc2N)cc1 [Compound 1c, 4-((5-amino-1-tosyl-1H-1,2,4-triazol-3-yl)amino)benzenesulfonamide]

Molecule: Nc1nc(Nc2ccc(S(N)(=O)=O)cc2)nn1C(=O)c1c(F)cccc1F [JNJ-7706621]
growth inhibition of normal cells relative to cancerous cell lines ([1]; normal cell growth): several folds less potent at inhibiting normal cell growth | antiproliferative activity ([1]; various cancerous cell lines): potent antiproliferative activity | tumor size [2]: significantly reduced the tumor size | reversal of resistance to CD37-targeted radioimmunotherapy (DLBC lymphoma cell lines): promoted the reversal of resistance
